The test deals with L1210 leukemia ip in BDF1 mice, survival T/C. The experiment in a line: NCI In Vivo Anticancer Drug Screen. Data for tumor model L1210 Leukemia (intraperitoneal) in B6D2F1 (BDF1) mice. The following applies: endpoint: mean survival time, higher = longer survival. In a few lines:
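Transplantable tumor model; survival measured in treated vs vehicle control mice. Value = treated/control.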

Setting [1] is: dose: 200.0 mg/kg/injection, schedule: Q01DX001 (ip), vehicle: saline.
The mark [2] stands for this setting: dose: 400.0 mg/kg/injection, schedule: Q01DX001 (ip), vehicle: saline.
Where [3] appears, read: dose: 100.0 mg/kg/injection, schedule: Q04DX003 (ip), vehicle: saline with Tween-80.
[4] abbreviates: dose: 200.0 mg/kg/injection, schedule: Q04DX003 (ip), vehicle: saline with Tween-80.
Where [5] appears, read: dose: 400.0 mg/kg/injection, schedule: Q04DX003 (ip), vehicle: saline with Tween-80.

The structures appear in SMILES notation. Several values for one entry are separate records, joined by “and”; a condition that tells them apart may be missing. Identical values can stand only once. Toxic doses and inconclusive results are not listed.

For the compound `CCC(/C=C\C(C)C1CCC2C3CC=C4CC(O)CCC4(C)C3CCC12C)C(C)C` (stereo not given), the T/C (dose: 75.0 mg/kg/injection, schedule: Q01DX009 (sc), vehicle: steriod suspending solution) is 94 % of control; the T/C (dose: 100.0 mg/kg/injection, schedule: Q01DX001 (ip), vehicle: carboxymethylcellulose (CMC)) was 89 % of control; the T/C (dose: 100.0 mg/kg/injection, schedule: Q04DX003 (sc), vehicle: steriod suspending solution) is 97 % of control; the T/C (dose: 150.0 mg/kg/injection, schedule: Q01DX009 (sc), vehicle: steriod suspending solution) was 98 % of control; the T/C (dose: 200.0 mg/kg/injection, schedule: Q01DX001 (ip), vehicle: carboxymethylcellulose (CMC)) was 89 % of control; the T/C (dose: 200.0 mg/kg/injection, schedule: Q04DX003 (sc), vehicle: steriod suspending solution) is 100 % of control. The T/C is 97 % of control (dose: 300.0 mg/kg/injection, schedule: Q01DX009 (sc), vehicle: steriod suspending solution); 86 % of control (dose: 400.0 mg/kg/injection, schedule: Q01DX001 (ip), vehicle: carboxymethylcellulose (CMC)); 95 % of control (dose: 400.0 mg/kg/injection, schedule: Q04DX003 (sc), vehicle: steriod suspending solution).
Turning to `COc1cc(Cc2nccc3cc(OC)c(OC)cc23)c(C(C)=O)cc1OC`, the T/C (dose: 0.9 mg/kg/injection, schedule: Q03HX024 (ip), vehicle: saline) was 98 % of control; the T/C (dose: 1.8 mg/kg/injection, schedule: Q03HX024 (ip), vehicle: saline) is 97 % of control; the T/C (dose: 2.9 mg/kg/injection, schedule: Q01DX Z (ip), vehicle: saline) was 107 % of control; the T/C (dose: 3.5 mg/kg/injection, schedule: Q03HX024 (ip), vehicle: saline) was 107 % of control; the T/C (dose: 4.4 mg/kg/injection, schedule: Q01DX Z (ip), vehicle: saline) is 111 % of control; the T/C (dose: 6.6 mg/kg/injection, schedule: Q01DX Z (ip), vehicle: saline) was 115 % of control. Also, the T/C was 111 % of control (dose: 7.0 mg/kg/injection, schedule: Q03HX024 (ip), vehicle: saline); 97 % of control (dose: 7.0 mg/kg/injection, schedule: Q04DX003 (ip), vehicle: saline); 119 % of control (dose: 10.0 mg/kg/injection, schedule: Q01DX Z (ip), vehicle: saline); 104 % of control (dose: 14.0 mg/kg/injection, schedule: Q04DX003 (ip), vehicle: saline); 121 % of control (dose: 22.0 mg/kg/injection, schedule: Q01DX009 (ip), vehicle: saline); 120 % of control (dose: 28.0 mg/kg/injection, schedule: Q04DX003 (ip), vehicle: saline). The T/C reads like this: (dose: 33.0 mg/kg/injection, schedule: Q01DX009 (ip), vehicle: saline) 109 % of control; (dose: 35.0 mg/kg/injection, schedule: Q01DX009 (ip), vehicle: saline) 121 % of control; (dose: 50.0 mg/kg/injection, schedule: Q01DX009 (ip), vehicle: saline) 154 % of control; (dose: 56.0 mg/kg/injection, schedule: Q04DX003 (ip), vehicle: saline) 118 % of control; (dose: 75.0 mg/kg/injection, schedule: Q01DX009 (ip), vehicle: saline) 108 % of control; (dose: 75.0 mg/kg/injection, schedule: Q01DX Z (ip), vehicle: saline) 93 % of control.
Turning to `CCCCCCCC(C(=O)O)C(CCCCCCC)C(=O)O` (stereo not given), the T/C is, setting by setting: (dose: 6.0 mg/kg/injection, schedule: Q01DX009 (ip), vehicle: saline) 89 % of control; (dose: 12.0 mg/kg/injection, schedule: Q01DX009 (ip), vehicle: saline) 96 % of control; (dose: 12.0 mg/kg/injection, schedule: Q04DX003 (ip), vehicle: saline) 98 % of control; (dose: 25.0 mg/kg/injection, schedule: Q04DX003 (ip), vehicle: saline) 104 % of control.
For the compound `Cc1cc(C(C)(CC(C)C)c2ccc(O)c(C)c2)ccc1O`, the T/C by setting is: (dose: 25.0 mg/kg/injection, schedule: Q01DX009 (ip), vehicle: gum acacia) 96 % of control; (dose: 50.0 mg/kg/injection, schedule: Q01DX009 (ip), vehicle: gum acacia) 98 % of control; (dose: 100.0 mg/kg/injection, schedule: Q01DX009 (ip), vehicle: gum acacia) 93 % of control and 89 % of control; (dose: 100.0 mg/kg/injection, schedule: Q04DX003 (ip), vehicle: gum acacia) 97 % of control; (dose: 200.0 mg/kg/injection, schedule: Q04DX003 (ip), vehicle: gum acacia) 93 % of control; (dose: 400.0 mg/kg/injection, schedule: Q04DX003 (ip), vehicle: gum acacia) 90 % of control.
Regarding `Clc1ccc(/C(=N\OC(c2ccccc2)c2ccccc2)c2ccccc2)cc1`, the T/C was 86 % of control under setting [1] and 87 % of control under setting [2].
Take `COc1cc2c(cc1OC)C(=O)C(c1[nH]c3cc(OC)c(OC)cc3c1O)=N2`: the T/C runs as follows: (dose: 50.0 mg/kg/injection, schedule: Q01DX001 (ip), vehicle: saline) 98 % of control; (dose: 100.0 mg/kg/injection, schedule: Q01DX001 (ip), vehicle: saline) 98 % of control; under setting [1], 96 % of control; under setting [2], 96 % of control.
Turning to `O=C(NCCNCc1ccccc1)c1ccccc1`, the T/C by setting is: (dose: 25.0 mg/kg/injection, schedule: Q01DX009 (ip), vehicle: water) 97 % of control; (dose: 25.0 mg/kg/injection, schedule: Q04DX003 (ip), vehicle: water) 96 % of control; (dose: 50.0 mg/kg/injection, schedule: Q01DX009 (ip), vehicle: water) 98 % of control; (dose: 50.0 mg/kg/injection, schedule: Q04DX003 (ip), vehicle: water) 107 % of control; under setting [3], 108 % of control; (dose: 100.0 mg/kg/injection, schedule: Q04DX003 (ip), vehicle: water) 92 % of control.
On to `Cc1cc(OC(=O)Nc2ccc(Cl)c(Cl)c2)ccc1Cl`, for which the T/C was 102 % of control (dose: 100.0 mg/kg/injection, schedule: Q01DX009 (ip), vehicle: Klucel (hydroxypropylcellulose) (HPC)); 96 % of control (dose: 100.0 mg/kg/injection, schedule: Q04DX003 (ip), vehicle: Klucel (hydroxypropylcellulose) (HPC)); 98 % of control (dose: 200.0 mg/kg/injection, schedule: Q01DX009 (ip), vehicle: Klucel (hydroxypropylcellulose) (HPC)); 104 % of control (dose: 200.0 mg/kg/injection, schedule: Q04DX003 (ip), vehicle: Klucel (hydroxypropylcellulose) (HPC)); 95 % of control (dose: 400.0 mg/kg/injection, schedule: Q01DX009 (ip), vehicle: Klucel (hydroxypropylcellulose) (HPC)); 101 % of control (dose: 400.0 mg/kg/injection, schedule: Q04DX003 (ip), vehicle: Klucel (hydroxypropylcellulose) (HPC)).
In the case of `O=C(O)CC1=C(O)c2ccccc2C(=O)C1=O`, the T/C is, setting by setting: (dose: 100.0 mg/kg/injection, schedule: Q01DX001 (ip), vehicle: water) 97 % of control; (dose: 200.0 mg/kg/injection, schedule: Q01DX001 (ip), vehicle: water) 103 % of control; (dose: 400.0 mg/kg/injection, schedule: Q01DX001 (ip), vehicle: water) 97 % of control.
On to `O=C1NC(=O)c2ncccc21`, for which the T/C (dose: 100.0 mg/kg/injection, schedule: Q01DX009 (ip), vehicle: saline with Tween-80) is 90 % of control; the T/C under setting [3] was 87 % of control; the T/C (dose: 200.0 mg/kg/injection, schedule: Q01DX009 (ip), vehicle: saline with Tween-80) is 95 % of control; the T/C under setting [4] is 103 % of control; the T/C (dose: 400.0 mg/kg/injection, schedule: Q01DX009 (ip), vehicle: saline with Tween-80) is 97 % of control; the T/C under setting [5] is 100 % of control.
Take `[Cl][Fe]([Cl])[Cl]`: the T/C runs as follows: (dose: 12.5 mg/kg/injection, schedule: Q01DX009 (ip), vehicle: saline with Tween-80) 98 % of control; (dose: 25.0 mg/kg/injection, schedule: Q01DX009 (ip), vehicle: saline with Tween-80) 94 % of control; (dose: 75.0 mg/kg/injection, schedule: Q01DX001 (ip), vehicle: saline) 96 % of control; under setting [3], 93 % of control; (dose: 150.0 mg/kg/injection, schedule: Q01DX001 (ip), vehicle: saline) 93 % of control; under setting [4], 94 % of control. Besides, the T/C (dose: 300.0 mg/kg/injection, schedule: Q01DX001 (ip), vehicle: saline) is 98 % of control and the T/C under setting [5] was 105 % of control.
As for `Cc1ccc(/C(C#N)=C/c2cccc([N+](=O)[O-])c2)cc1`, the T/C was 95 % of control (dose: 100.0 mg/kg/injection, schedule: Q04DX002 (ip), vehicle: saline with Tween-80); 88 % of control (dose: 200.0 mg/kg/injection, schedule: Q04DX002 (ip), vehicle: saline with Tween-80); 98 % of control (dose: 400.0 mg/kg/injection, schedule: Q04DX002 (ip), vehicle: saline with Tween-80).
